In patent US20260184726A1, “HETEROCYCLIC COMPOUNDS AS KINASE INHIBITORS, COMPOSITIONS, AND METHODS OF USE THEREOF” (JS INNOMED HOLDINGS LTD., priority 2022, published 2026):
Read-outs that look alike come from different tables or passages of the source.

Assays:
human RET kinase = target: T1, human RET kinase (Homo sapiens, UniProt P07949); assay: RET Kinase Assay (mobility shift assay, ATP at Km); type: biochemical; conditions: 23 μM ATP (Km), read-out: RET Enzymatic Activity
T1 construct: purchased Carna 08-159
T1 sequence (P07949 29-1114): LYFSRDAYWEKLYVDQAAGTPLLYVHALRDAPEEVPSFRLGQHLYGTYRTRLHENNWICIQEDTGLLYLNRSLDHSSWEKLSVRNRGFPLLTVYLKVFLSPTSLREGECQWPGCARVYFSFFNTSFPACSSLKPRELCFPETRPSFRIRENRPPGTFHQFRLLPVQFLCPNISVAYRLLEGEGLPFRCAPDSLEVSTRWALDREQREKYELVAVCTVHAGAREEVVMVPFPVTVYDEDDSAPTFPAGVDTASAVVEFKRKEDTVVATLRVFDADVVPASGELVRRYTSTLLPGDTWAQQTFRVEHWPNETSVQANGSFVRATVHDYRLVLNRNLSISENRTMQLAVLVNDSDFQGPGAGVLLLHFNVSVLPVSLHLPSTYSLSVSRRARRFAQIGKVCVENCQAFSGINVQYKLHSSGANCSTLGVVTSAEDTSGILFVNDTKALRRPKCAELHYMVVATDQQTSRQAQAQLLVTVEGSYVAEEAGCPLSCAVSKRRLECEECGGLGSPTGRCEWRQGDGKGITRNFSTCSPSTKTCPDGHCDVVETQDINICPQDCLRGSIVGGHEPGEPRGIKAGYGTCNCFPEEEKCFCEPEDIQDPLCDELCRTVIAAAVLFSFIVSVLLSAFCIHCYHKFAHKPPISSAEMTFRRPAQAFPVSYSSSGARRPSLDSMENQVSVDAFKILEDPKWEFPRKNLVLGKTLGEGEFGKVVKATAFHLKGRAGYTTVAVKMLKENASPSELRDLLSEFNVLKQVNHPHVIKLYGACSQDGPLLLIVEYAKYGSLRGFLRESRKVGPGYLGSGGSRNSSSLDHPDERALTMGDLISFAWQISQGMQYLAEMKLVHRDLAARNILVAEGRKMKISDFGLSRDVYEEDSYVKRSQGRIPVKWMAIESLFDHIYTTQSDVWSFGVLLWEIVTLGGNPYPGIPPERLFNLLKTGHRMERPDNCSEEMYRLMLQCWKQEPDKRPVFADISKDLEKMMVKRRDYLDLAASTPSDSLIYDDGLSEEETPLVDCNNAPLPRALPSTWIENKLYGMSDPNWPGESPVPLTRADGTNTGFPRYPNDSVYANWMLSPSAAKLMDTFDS
Procedure: Compounds were tested by Mobility shift assay with ATP concentration at Km. The assay used human RET kinase (Carna 08-159). Test compounds were prepared and diluted in DMSO in 3-fold serial dilutions to 50× of the final testing concentrations. The compounds were then further diluted to 5× by the kinase reaction buffer (50 mM HEPES pH 7.5, 0.0015% Brij-35). The enzymatic reaction for compound testing was performed in a white 384-well polypropylene plate (Corning 3573) with a total reaction volume of 25 μl containing 7 nM RET, 3 μM peptide substrate FAM-P2 (GL Biochem 112394), and 23 μM ATP (Sigma A7699-1G). The assay started with loading RET diluted in kinase reaction buffer to wells, followed by addition of equal volume of 5× compounds for 15-min incubation at the room temperature for pre-treatment. The enzymatic reaction was initiated by addition of mixture of the substrate and ATP prepared in kinase reaction buffer. After incubation at 28° C. for one hour, 25 μl of stopper buffer (a mixture of 100 mM HEPES pH 7.5 buffer, 0.015% Brij-35, 50 mM EDTA and 0.2% of coating reagent 3 (Cliper Lifesciences)). After 30 minutes of incubation at room temperature, the plate was read in a Caliper. Percent of control was calculated as the percentage of compound-treated vs 2% DMSO vehicle-treated. The dose-response curves were generated and the IC50 values were calculated by nonlinear sigmoid curve fitting using XLFit.

BAF3-KIF5B-RET cells = target: T2, BAF3-KIF5B-RET cells (Homo sapiens, UniProt P07949); assay: BAF3-KIF5B-RET Cell Proliferation Assay (CellTiter-Glo); type: cell-based; conditions: growth inhibition, 72 hours
T2 construct: fused on or other part: P33176 (Kinesin-1 heavy chain)
T2 sequence (P07949 whole entry, change not shown, the tested form may be a part): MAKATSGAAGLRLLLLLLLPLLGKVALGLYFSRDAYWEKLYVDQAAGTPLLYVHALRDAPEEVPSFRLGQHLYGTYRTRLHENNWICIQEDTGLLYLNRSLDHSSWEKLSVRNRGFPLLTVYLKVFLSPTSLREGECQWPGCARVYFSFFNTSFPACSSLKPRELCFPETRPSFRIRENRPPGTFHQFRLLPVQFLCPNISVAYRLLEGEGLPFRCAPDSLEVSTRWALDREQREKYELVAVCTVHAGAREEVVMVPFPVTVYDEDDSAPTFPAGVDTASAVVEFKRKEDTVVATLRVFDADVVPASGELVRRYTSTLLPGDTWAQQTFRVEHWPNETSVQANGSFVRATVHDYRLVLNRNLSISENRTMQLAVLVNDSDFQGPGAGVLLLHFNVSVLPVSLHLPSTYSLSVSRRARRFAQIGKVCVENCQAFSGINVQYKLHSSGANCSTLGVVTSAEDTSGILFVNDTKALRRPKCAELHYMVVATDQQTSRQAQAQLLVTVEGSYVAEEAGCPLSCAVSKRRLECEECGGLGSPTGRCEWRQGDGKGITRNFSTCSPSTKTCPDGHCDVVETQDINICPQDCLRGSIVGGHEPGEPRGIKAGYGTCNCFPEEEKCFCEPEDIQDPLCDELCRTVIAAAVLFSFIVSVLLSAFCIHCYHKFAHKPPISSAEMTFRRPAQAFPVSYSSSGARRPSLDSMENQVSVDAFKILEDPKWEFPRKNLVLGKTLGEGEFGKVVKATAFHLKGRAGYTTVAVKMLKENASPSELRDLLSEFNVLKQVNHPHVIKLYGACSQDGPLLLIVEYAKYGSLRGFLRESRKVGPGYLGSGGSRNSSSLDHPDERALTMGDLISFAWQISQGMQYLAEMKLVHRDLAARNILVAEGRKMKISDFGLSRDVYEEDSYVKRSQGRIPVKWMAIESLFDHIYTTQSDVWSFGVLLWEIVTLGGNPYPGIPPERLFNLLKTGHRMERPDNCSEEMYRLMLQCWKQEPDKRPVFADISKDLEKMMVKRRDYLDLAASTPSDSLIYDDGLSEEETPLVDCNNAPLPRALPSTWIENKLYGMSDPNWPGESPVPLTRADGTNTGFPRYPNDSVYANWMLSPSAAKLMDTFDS
Procedure: (§1) Compounds disclosed herein were tested for the inhibition of RET by a cancer cell proliferation assay commonly known as CellTiter-Glo assay. In this assay, a complete media was prepared by adding 10% fetal bovine serum to RPMI-1640 medium (Life technology) for RET-driven cancer cells (BAF3-FIF5B-RET, Ba/F3-KIF5B-RET-G810R, Ba/F3-TEL-RET-M918T or Ba/F3-KIF5B-RET-V804M). Individual RET-driven type of cells were added to each of 88 wells of a 96 well plate at a seeding density of 2,000 cells/well/95 μL. The cells were allowed to attach to the plate by incubating at 37° C. for 24 hours. The compound was dissolved in DMSO (SIGMA). A solution of test compound was prepared in complete media by serial dilution to obtain the following concentrations: 20 μM, 6.67 μM, 2.22 μM, 0.74 μM, 0.25 μM, 0.082 μM, 0.027 μM, 0.0091 μM and 0.0030 μM. The test compound solution (5 μL) was added to each of 80 cell-containing wells. The final concentrations of the compound were following: 1 μM, 0.33 μM, 0.11 μM, 0.037 μM, 0.012 μM, 0.0041 μM, 0.0014 μM, 0.00046 μM and 0.00015 μM. The final concentration of DMSO is 0.1%. To the 8 remaining cell-containing wells, only complete media (containing 0.1% DMSO) was added to form a control group in order to measure maximal proliferation. To the remaining 8 empty wells, complete media was added to for a vehicle control group in order to measure background. The plates were incubated at 37° C. for 72 hours. 50 μl of CellTiter-Glo® Reagent was added to each well. Mix contents for 2 minutes on an orbital shaker to induce cell lysis. Incubate at room temperature for 10 minutes to stabilize luminescent signal. Record luminescence on Paradigm. Cell viability (CV %) was calculated relative to vehicle (DMSO) treated control wells. The IC50 was calculated using GraphPad Prism.

[1] = target: T3, Ba/F3-KIF5B-RET-V804M cells (Homo sapiens, UniProt P07949, V804M, cells depend on it); assay: Ba/F3-KIF5B-RET-V804M Cell Proliferation Assay (CellTiter-Glo); type: cell-based; conditions: growth inhibition, 72 hours; Table 3; read-out: BZ/F3-KIF5B-RET V804M
T3 construct: fused on or other part: P33176 (Kinesin-1 heavy chain)
T3 sequence (P07949 whole entry V804M, the tested form may be a part): as the sequence (P07949 whole entry, change not shown, the tested form may be a part) above, with V804M counted along it
Procedure: as §1

human Aurora B kinase = target: T4, human Aurora B kinase (Homo sapiens, UniProt Q96GD4); assay: Aurora B Kinase Assay (mobility shift assay, ATP at Km); type: biochemical; conditions: 15 μM ATP (Km), read-out: AurB Enzymatic Activity
T4 construct: purchased Carna 05-102
T4 sequence (Q96GD4 whole entry): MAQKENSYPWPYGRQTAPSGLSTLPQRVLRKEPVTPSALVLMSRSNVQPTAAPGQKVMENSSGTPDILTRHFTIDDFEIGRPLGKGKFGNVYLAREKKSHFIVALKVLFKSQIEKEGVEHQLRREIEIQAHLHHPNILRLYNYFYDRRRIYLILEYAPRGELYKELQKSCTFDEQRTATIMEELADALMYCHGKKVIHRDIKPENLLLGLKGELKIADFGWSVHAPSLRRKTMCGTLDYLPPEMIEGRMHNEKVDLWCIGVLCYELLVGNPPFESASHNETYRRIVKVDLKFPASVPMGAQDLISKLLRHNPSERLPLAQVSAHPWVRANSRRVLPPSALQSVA
T4 sequence (Q9NQS7 803-918 partner limits assumed): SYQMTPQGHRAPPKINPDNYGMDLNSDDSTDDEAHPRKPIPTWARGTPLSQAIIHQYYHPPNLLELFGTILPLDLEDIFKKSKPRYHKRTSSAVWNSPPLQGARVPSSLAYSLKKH
Procedure: Compounds were tested by Mobility shift assay with ATP concentration at Km. The assay used human Aurora B kinase (Carna 05-102). Test compounds were prepared and diluted in DMSO in 3-fold serial dilutions to 50× of the final testing concentrations. The compounds were then further diluted to 5× by the kinase reaction buffer (50 mM HEPES pH 7.5, 0.0015% Brij-35). The enzymatic reaction for compound testing was performed in a white 384-well polypropylene plate (Corning 3573) with a total reaction volume of 25 μl containing 9 nM Aurora B, 3 μM peptide substrate FAM-P21 (GL Biochem 116370), and 15 μM ATP (Sigma A7699-1G). The assay started with loading Aurora B diluted in kinase reaction buffer to wells, followed by addition of equal volume of 5× compounds for 15-min incubation at the room temperature for pre-treatment. The enzymatic reaction was initiated by addition of mixture of the substrate and ATP prepared in kinase reaction buffer. After incubation at 28° C. for one hour, 25 μl of stopper buffer (a mixture of 100 mM HEPES pH 7.5 buffer, 0.015% Brij-35, 50 mM EDTA and 0.2% of coating reagent 3 (Cliper Lifesciences)). After 30 minutes of incubation at room temperature, the plate was read in a Caliper. Percent of control was calculated as the percentage of compound-treated vs 2% DMSO vehicle-treated. The dose-response curves were generated and the IC50 values were calculated by nonlinear sigmoid curve fitting using XLFit.

BAF3 cells = assay: BAF3 Cell Proliferation Assay (CellTiter-Glo, without RET driven, IL-3); type: cell-based; conditions: Mus musculus; growth inhibition in BAF3 cells, 72 hours, with IL-3; read-out: BAF3 Cellular Activity
Procedure: Compounds disclosed herein were tested for the inhibition BAF3 cells proliferation without RET driven by CellTiter-Glo assay. In this assay, a complete media was prepared by adding 10% fetal bovine serum and 1 ng/ml IL-3 to RPMI-1640 medium (Life technology) for BAF3 cells. BAF3 cells were added to each of 88 wells of a 96 well plate at a seeding density of 2,000 cells/well/95 μL. The cells were allowed to attach to the plate by incubating at 37° C. for 24 hours. The compound was dissolved in DMSO (SIGMA). A solution of test compound was prepared in complete media by serial dilution to obtain the following concentrations: 200 μM, 66.7 μM, 22.2 μM, 7.4 μM, 2.5 μM, 0.82 μM, 0.27 μM, 0.091 μM and […]. The test compound solution (5 μL) was added to each of 80 cell-containing wells. The final concentrations of the compound were following: 10 μM, 3.33 μM, 1.11 μM, 0.37 μM, 0.12 μM, 0.041 μM, 0.014 μM, 0.0046 μM and 0.0015 μM. The final concentration of DMSO is 0.1%. To the 8 remaining cell-containing wells, only complete media (containing 0.1% DMSO) was added to form a control group in order to measure maximal proliferation. To the remaining 8 empty wells, complete media was added to for a vehicle control group in order to measure background. The plates were incubated at 37° C. for 72 hours. 50 μl of CellTiter-Glo® Reagent was added to each well. The contents were mixed for 2 minutes on an orbital shaker to induce cell lysis, and then were incubated at room temperature for 10 minutes to stabilize luminescent signal. Luminescence was recorded on Paradigm. Cell viability (CV %) was calculated relative to vehicle (DMSO) treated control wells. The IC50 was calculated using GraphPad Prism.

[2] = target: BA/F3-KIF5B-RET M918T cells (Homo sapiens, UniProt P07949, M918T, cells depend on it, form not given); assay: Ba/F3 RET-M918T Cell Proliferation Assay (CellTiter-Glo); type: cell-based; conditions: growth inhibition, 72 hours; Table 3
Chain of BA/F3-KIF5B-RET M918T cells (P07949 whole entry M918T, form open): as the sequence (P07949 whole entry, change not shown, the tested form may be a part) above, with M918T counted along it
Procedure: as §1

[3] = target: T5, Ba/F3-KIF5B-RET-G810R cells (Homo sapiens, UniProt P07949, G810R, cells depend on it); assay: Ba/F3-KIF5B-RET-G810R Cell Proliferation Assay (CellTiter-Glo); type: cell-based; conditions: growth inhibition, 72 hours; Table 3
T5 construct: fused on or other part: P33176 (Kinesin-1 heavy chain)
T5 sequence (P07949 whole entry G810R, the tested form may be a part): as the sequence (P07949 whole entry, change not shown, the tested form may be a part) above, with G810R counted along it
Procedure: as §1

human KDR kinase = target: T6, human KDR kinase (Homo sapiens, UniProt P35968); assay: KDR Kinase Assay (mobility shift assay, ATP at Km); type: biochemical; conditions: 92 μM ATP (Km), read-out: KDR Enzymatic Activity
T6 construct: purchased Carna 08-191
T6 sequence (P35968 20-1356): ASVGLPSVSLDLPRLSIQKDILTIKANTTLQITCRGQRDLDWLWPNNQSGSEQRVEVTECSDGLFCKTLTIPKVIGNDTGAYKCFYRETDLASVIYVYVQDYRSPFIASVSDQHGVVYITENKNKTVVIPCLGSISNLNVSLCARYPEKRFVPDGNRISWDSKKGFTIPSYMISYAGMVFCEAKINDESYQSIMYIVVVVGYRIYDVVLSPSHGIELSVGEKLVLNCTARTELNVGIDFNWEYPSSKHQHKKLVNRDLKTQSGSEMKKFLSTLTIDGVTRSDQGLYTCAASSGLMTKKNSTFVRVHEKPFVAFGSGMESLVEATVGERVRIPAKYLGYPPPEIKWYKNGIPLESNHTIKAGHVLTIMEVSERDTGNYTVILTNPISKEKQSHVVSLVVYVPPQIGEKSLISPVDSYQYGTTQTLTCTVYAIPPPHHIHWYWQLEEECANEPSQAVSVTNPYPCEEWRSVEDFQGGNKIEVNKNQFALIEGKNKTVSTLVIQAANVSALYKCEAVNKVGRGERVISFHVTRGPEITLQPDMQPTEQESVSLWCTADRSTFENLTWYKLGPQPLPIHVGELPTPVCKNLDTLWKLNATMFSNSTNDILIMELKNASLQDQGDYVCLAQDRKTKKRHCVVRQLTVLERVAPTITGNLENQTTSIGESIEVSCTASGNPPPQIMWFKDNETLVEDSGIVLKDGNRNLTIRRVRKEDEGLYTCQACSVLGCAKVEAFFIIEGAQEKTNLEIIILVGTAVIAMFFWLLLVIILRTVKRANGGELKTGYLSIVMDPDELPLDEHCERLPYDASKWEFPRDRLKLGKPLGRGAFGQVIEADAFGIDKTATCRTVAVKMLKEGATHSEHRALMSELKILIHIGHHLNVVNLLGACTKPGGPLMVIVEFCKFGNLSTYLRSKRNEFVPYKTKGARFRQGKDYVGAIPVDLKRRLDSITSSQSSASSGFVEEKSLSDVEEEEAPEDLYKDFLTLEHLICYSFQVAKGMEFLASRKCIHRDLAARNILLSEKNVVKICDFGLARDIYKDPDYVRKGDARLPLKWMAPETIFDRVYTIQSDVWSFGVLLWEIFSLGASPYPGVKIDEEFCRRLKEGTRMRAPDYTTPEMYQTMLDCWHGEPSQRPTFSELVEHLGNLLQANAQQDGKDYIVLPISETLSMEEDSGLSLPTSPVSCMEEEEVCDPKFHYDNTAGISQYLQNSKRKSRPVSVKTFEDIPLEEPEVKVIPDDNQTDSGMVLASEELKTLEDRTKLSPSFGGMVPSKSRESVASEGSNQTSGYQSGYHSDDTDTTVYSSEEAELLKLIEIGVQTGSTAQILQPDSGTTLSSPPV
Procedure: Compounds were tested by Mobility shift assay with ATP concentration at Km. The assay used human KDR kinase (Carna 08-191). Test compounds were prepared and diluted in DMSO in 3-fold serial dilutions to 50× of the final testing concentrations. The compounds were then further diluted to 5× by the kinase reaction buffer (50 mM HEPES pH 7.5, 0.0015% Brij-35). The enzymatic reaction for compound testing was performed in a white 384-well polypropylene plate (Corning 3573) with a total reaction volume of 25 μl containing 1.2 nM KDR, 3 μM peptide substrate FAM-P22 (GL Biochem 112393), and 92 μM ATP (Sigma A7699-1G). The assay started with loading RET diluted in kinase reaction buffer to wells, followed by addition of equal volume of 5× compounds for 15-min incubation at the room temperature for pre-treatment. The enzymatic reaction was initiated by addition of mixture of the substrate and ATP prepared in kinase reaction buffer. After incubation at 28° C. for one hour, 25 μl of stopper buffer (a mixture of 100 mM HEPES pH 7.5 buffer, 0.015% Brij-35, 50 mM EDTA and 0.2% of coating reagent 3 (Cliper Lifesciences)). After 30 minutes of incubation at room temperature, the plate was read in a Caliper. Percent of control was calculated as the percentage of compound-treated vs 2% DMSO vehicle-treated. The dose-response curves were generated and the IC50s were calculated by nonlinear sigmoid curve fitting using XLFit.

[4] = Table 2, read-out: BA/F3-KIF5B-RET Cellular activity
[5] = Table 3, read-out: BA/F3-KIF5B-RET

Structure (SMILES) | IC50 (human RET kinase) [nM] | GI50 (BAF3-KIF5B-RET cells; [4]) [nM] | GI50 (BAF3-KIF5B-RET cells; [5]) [nM] | GI50 [1] [nM] | IC50 (human Aurora B kinase) [nM] | IC50 (BAF3 cells) [nM] | GI50 [2] [nM] | GI50 [3] [nM] | IC50 (human KDR kinase) [nM]
COc1ccc(CN2C3CC2CN(c2ccc(-c4cc(-c5ccc(C(C)(C)O)cn5)cn5ncc(C#N)c45)cn2)C3)cn1 [Example 9, 6-(5-(2-hydroxypropan-2-yl)pyridin-2-yl)-4-(6-(6-((6-methoxypyridin-3-yl)methyl)-3,6-diazabicyclo[3.1.1]heptan-3-yl)pyridin-3-yl)pyrazolo[1,5-a]pyridine-3-carbonitrile] | 0.58 | 0.6 | 0.6 | 4.8 | 80 | 1130 | 13.2 | 54.6 | –
COc1ccc(CN2C3CC2CN(c2ccc(-c4cc(-c5cnc(C(C)(C)O)nc5)cn5ncc(C#N)c45)cn2)C3)cn1 [Example 10, 6-(2-(2-hydroxypropan-2-yl)pyrimidin-5-yl)-4-(6-(6-((6-methoxypyridin-3-yl)methyl)-3,6-diazabicyclo[3.1.1]heptan-3-yl)pyridin-3-yl)pyrazolo[1,5-a]pyridine-3-carbonitrile] | 3.5 | 30.5 | – | – | 743 | > 10000 | – | – | –
COc1ccc(CN2C3CC2CN(c2ccc(-c4cc(-c5ccc(C6(O)CC6)cn5)cn5ncc(C#N)c45)cn2)C3)cn1 [Example 11, 6-(5-(1-hydroxycyclopropyl)pyridin-2-yl)-4-(6-(6-((6-methoxypyridin-3-yl)methyl)-3,6-diazabicyclo[3.1.1]heptan-3-yl)pyridin-3-yl)pyrazolo[1,5-a]pyridine-3-carbonitrile] | 0.6 | 0.9 | – | – | 66.4 | 3060 | – | – | –
COc1ccc(CN2C3CC2CN(c2ccc(-c4cc(-c5ncc(C(C)(C)O)cn5)cn5ncc(C#N)c45)cn2)C3)cn1 [Example 13, 6-(5-(2-hydroxypropan-2-yl)pyrimidin-2-yl)-4-(6-(6-((6-methoxypyridin-3-yl)methyl)-3,6-diazabicyclo[3.1.1]heptan-3-yl)pyridin-3-yl)pyrazolo[1,5-a]pyridine-3-carbonitrile] | 0.4 | 2.2 | – | – | 183 | 2670 | – | – | –
CC(C)(O)c1ccc(-c2cc(-c3ccc(N4C5CC6CC4CC(NC(=O)c4ncccc4Cl)(C6)C5)nc3)c3c(C#N)cnn3c2)nc1 [Example 23, 3-chloro-N-((1R,3S,5s,7s)-2-(5-(3-cyano-6-(5-(2-hydroxypropan-2-yl)pyridin-2-yl)pyrazolo[1,5-a]pyridin-4-yl)pyridin-2-yl)-2-azaadamantan-5-yl)picolinamide] | 1.7 | 0.5 | – | – | – | 1140 | – | – | 4.2
CCC(=O)c1ccc(-c2cc(-c3ccc(N4CC5CC(C4)N5Cc4ccc(OC)nc4)nc3)c3c(C#N)cnn3c2)nc1 [Example 37, 4-(6-(6-((6-methoxypyridin-3-yl)methyl)-3,6-diazabicyclo[3.1.1]heptan-3-yl)pyridin-3-yl)-6-(5-propionylpyridin-2-yl)pyrazolo[1,5-a]pyridine-3-carbonitrile] | 0.7 | 1.2 | – | – | 138 | 4460 | – | – | –
COc1ccc(CN2C3CC2CN(c2ccc(-c4cc(OCC(C)(C)O)cn5ncc(C#N)c45)cn2)C3)cn1 [Loxo-292, reference compound] | – | – | 3.3 | 43.6 | – | – | 46.9 | 624 | –
